Laboratory results from publication PMC9743426, “Expanding the Chemical Space of Drug-like Passerini Compounds: Can α-Acyloxy Carboxamides Be Considered Hard Drugs?” (ACS Medicinal Chemistry Letters, 2022).

Key:
[1] = Hydrolytic (chemical) stability in Tris-HCl buffer pH 7.4; type: physicochemical; settings: 50 mM Tris-HCl buffer pH 7.4, incubation 30 min, without microsomes
Method: (§1) For all 43 compounds, a first evaluation of their chemical and metabolic stabilities toward hydrolysis was performed by incubating them in buffer under physiological conditions (50 mM Tris-HCl, pH 7.4) and in mouse liver microsomes (Table 1). This model was chosen because, similar to the human liver, both of the carboxylesterase isoforms are present. […] A more interesting trend was instead possible to observe with benzoic acids.
(§2) Hydrolytic stability in MLM and HLM
(§3) The standard incubation mixture (200 µL final volume) was carried out in a 50 mM TRIS-HCl buffer (pH 7.4) containing 150 mM KCl, tween 80 as cosolvent (0.8 mg/mg protein), and the substrate (10 μM). After pre-equilibration of the mixture, an appropriate volume of MLM or HLM suspension was added to give a final protein concentration of 1.0 mg/mL. The mixture was shaken for 30 minutes at 37 °C. Control incubations were carried out without the presence or microsomes or in pure acetonitrile. Each incubation was stopped by the addition of 200 µL ice-cold acetonitrile, vortexed and centrifuged at 13000 rpm for 5 min. The supernatants were analyzed by LC-HRMS. […]

[2] = Hydrolytic stability in mouse liver microsomes (MLM); type: in vitro ADME; settings: 30 min
Method: as §1, §2, §3

[3] = Hydrolytic stability in human liver microsomes (HLM); type: in vitro ADME; settings: 30 min
Method: This was made in light of the fact that the overall metabolizing capability of murine hepatic enzymes, including carboxylesterases, is supposed to be higher compared to the human ones.[17]
as §2, §3

[4] = Hydrolytic stability in human plasma; type: in vitro ADME; settings: substrate 10 μM, 30 min, 37 °C
Method: As a final point, for some of the compounds characterized by the best hepatic stability, we also evaluated them in human plasma (Table 2) and under acidic and alkaline conditions (see the Supporting Information), the latter to ascertain the stability of α-acyloxy carboxamides in the gastrointestinal tract. […] Once again, the ortho,ortho′-disubstitution of the aromatic ring is the one that gives the best metabolic stability. […]
Hydrolytic stability in human plasma
The standard incubation mixture (100 μL final volume) was carried out by dissolving the tested substrate compounds (10 μM) in DMSO (5% final volume) in preincubated plasma at 37 °C. The mixture was shaken for 30 min at 37 °C. Control incubations were carried out without substrate. Each incubation was stopped by addition of 200 μL of ice-cold acetonitrile, vortexed, and centrifuged at 13000 rpm for 10 min. The supernatants were analyzed by LC-HRMS. […]

[5] = tested on: P. aeruginosa ATCC 9027; assay: Antibacterial activity, agar well-diffusion method; type: cell-based, Pseudomonas aeruginosa
Excerpt: Recently an article presented the synthesis of 1,3-phenylenebis(2-(cyclohexylamino)-2-oxoethane-1,1-diyl) dibenzoate (99) (Figure 6), obtained with a double Passerini reaction starting from 1,3-benzenedicarbaldehyde. […] According to our studies, compounds 99 is expected to suffer from metabolic instability, whereas the new analogue 100 designed by us (Figure 6), containing methyl groups at the two ortho positions in each benzoate group, should be metabolically stable. We then synthesized the two compounds and evaluated their antibacterial activities on P. aeruginosa and their hydrolytic stabilities. The in vitro antibacterial activities of 99 and 100 were evaluated against the P. aeruginosa ATCC 9027 strain. […] No inhibition halos were observed around the wells containing DMSO alone.
The in vitro antibacterial activity of the compounds was assayed against the Gram-negative P. aeruginosa
ATCC 9027 by the agar well-diffusion method. Compounds 99, 100, and gentamycin were dissolved in
DMSO (Scharlab, Barcelona, ES) and tested at the concentration of 1 mg/mL. For comparison, gentamycin
was used as a negative control of growth and DMSO as positive control of growth. The strain, obtained from
the American Type Culture Collection (ATCC, Manassas, VA, United States) and stored at −80 °C in Brain
Heart Infusion (Scharlab, Barcelona, ES) with 25% glycerol (Scharlab, Barcelona, ES), was cultured onto
Tryptic Soy Agar (Scharlab, Barcelona, ES) at 37°C for 16 h.
A bacterial suspension (ca. 1.5×10^8 Colony Forming Unit per ml) was prepared in isotonic saline solution
(NaCl 0,9%) and spread onto Muller-Hinton agar (Scharlab, Barcelona, ES) surfaces using a sterile swab.
Wells (6 mm diameter) were punched using a sterile punch cutter and filled with 55 μL of each sample. Plates
were left at room temperature for 1h to allow each sample to diffuse into the agar and then incubated at 37 °C
for 24 h. Finally, the inhibition zone diameters were measured.
The assay was carried out in triplicate and repeated twice. Results were expressed as average values ± standard

[6] = tested on: Pseudomonas aeruginosa; set-up: method as in doi:10.1155/2013/125959; settings: mixture of two enantiomers and a meso form; cited from earlier work

SMILES: O=C(OC(C(=O)NC1CCCCC1)c1cccc(C(OC(=O)c2ccccc2)C(=O)NC2CCCCC2)c1)c1ccccc1 (stereo not drawn) [Compound 99, 1,3-phenylenebis(2-(cyclohexylamino)-2-oxoethane-1,1-diyl) dibenzoate, reference compound]
- Residual substrate percentage, buffer [1]: >99%
- Residual substrate percentage, MLM ([2]; mouse liver microsomes 1.0 mg/mL protein, substrate 10 μM, 37 °C): 5%
- Hydrolysis of the ester group in mouse liver microsomes (in words) ([2]; mouse liver microsomes): high instability
- Residual substrate percentage, HLM ([3]; human liver microsomes 1.0 mg/mL protein, substrate 10 μM, 37 °C): 47%
- Hydrolytic stability in human liver microsomes (in words) ([3]; human liver microsomes): hydrolytic stability increased
- Residual substrate percentage, plasma [4]: 93%
- Antibacterial activity (in words) ([5]; P. aeruginosa ATCC 9027, 1 mg/mL): moderate antibacterial activities
- Inhibition zone ([5]; P. aeruginosa ATCC 9027, 1 mg/mL in DMSO, 55 μL per 6 mm well, 24 h at 37 °C, average ± SD): 10.2 ± 1.2 mm
- Antibacterial activity against Pseudomonas aeruginosa (in words) [6]: good antibacterial activity
